The nature of this data set: recombinant UMI read abundance after kanamycin selection (control-corrected) (log10(CPM+1)); higher = more efficient recombination; extreme values may be limits of the assay; sequences stand for … in AGTGCAGAGAAAATCGGCCAGTTTTCTCTGCCTGCAGTCCGCATGCCGTGGGACCCCTTGGGTTCTAACCTGTTGCCTAGATTTATGCAGCGGACTGCCTTTCTCCCAAAGTGATAAACCGG…AGGTTGGTTTCACT; site = the 11-nt donor. The gist of the method: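 The measure is log10(CPM+1) for recombinant UMIs. These were PCR-amplified across the donor–target junction and sequenced after Escherichia coli carrying a donor and donor-binding-loop pair library and a target plasmid with T7-inducible IS621 bridge recombinase was plated on IPTG (0.07 mM) plus kanamycin or unselected. CPM were averaged over two replicates and scaled by control-derived factors.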
As for “CGCTTGTCATGGACCGGTTTTCCCGGTAATCCGTATTTGCG (site CGCTTGTCTCG)”, the “recombinant UMI read abundance (log10)” value came out at 1.46.
With “CGGAAATCATGGACCGGTTTTCCCGGTAATCCGTATTTGCT (site CGGAAATCTAG)” the figure was 2.06; with “CGGAAATCATGGACCGGTTTTCCCGGTAATCCGTATTTGCT (site CGGACATCTAG)”, 0.293.
The result for “CGGAAATCATGGACCGGTTTTCCCGGTAATCCGTATTTGCT (site CGGAGATCTAG)” reads 0.215; that for “CGGAAATCATGGACCGGTTTTCCCGGTAATCCGTATTTGCT (site CGGATATCTAG)”, 0.
With “CGGAACGCATGGACCGGTTTTCCCGGTAATCCGTATTTGTT (site CGGAACGCTAA)” the figure was 3.15.
As for “CGGAACGCATGGACCGGTTTTCCCGGTAATCCGTATTTGTT (site CGGAATCCTAA)”, the “recombinant UMI read abundance (log10)” value is 0.0213.
The result for “CGGAAGACATGGACCGGTTTTCCCGGTAATCCGTATTTGTT (site CGGAAGACTAA)” reads 2.3.
With “CGGAAGACATGGACCGGTTTTCCCGGTAATCCGTATTTGTT (site CGGAATCCTAA)” the figure was 0.00737; with “CGGAAGCCATGGACCGGTTTTCCCGGTAATCCGTATTTGAT (site CGGAAGCCTAT)”, 0.713; with “CGGAAGCCATGGACCGGTTTTCCCGGTAATCCGTATTTGAT (site CGGAATCCTAA)”, 0.
With “CGGAAGCCATGGACCGGTTTTCCCGGTAATCCGTATTTGCA (site AGGAAGACTTG)” the figure was 0.
In the case of “CGGAAGCCATGGACCGGTTTTCCCGGTAATCCGTATTTGCA (site CGGAAGCCTTG)”, the “recombinant UMI read abundance (log10)” value was found to be 0.
With “CGGAATCCATGGACCGGTTTTCCCGGTAATCCGTATTTGCA (site CGGAATCCTAA)” the figure was 0; with “CGGAATCCATGGACCGGTTTTCCCGGTAATCCGTATTTGCA (site CGGAATCCTTG)”, 0.628.
With “CGGAATTCATGGACCGGTTTTCCCGGTAATCCGTATTTGAA (site CGGAATTCTTT)” the figure was 1.67.
With “CGGAATTCATGGACCGGTTTTCCCGGTAATCCGTATTTGTA (site CGGAATCCTAA)” the figure was 0.00369; with “CGGAATTCATGGACCGGTTTTCCCGGTAATCCGTATTTGTA (site CGGAATTCTTA)”, 2.78; with “CGGACAACATGGACCGGTTTTCCCGGTAATCCGTATTTGCT (site CGGACAACTAG)”, 1.89.
As for “CGGACAACATGGACCGGTTTTCCCGGTAATCCGTATTTGCT (site CGGACACCTAG)”, the “recombinant UMI read abundance (log10)” value came out at 0.
As for “CGGACAACATGGACCGGTTTTCCCGGTAATCCGTATTTGCT (site CGGACAGCTAG)”, the “recombinant UMI read abundance (log10)” value is 0.34.
With “CGGACAACATGGACCGGTTTTCCCGGTAATCCGTATTTGCT (site CGGACATCTAG)” the figure was 2.39.
With “CGGACATCATGGACCGGTTTTCCCGGTAATCCGTATTTGCA (site CGGACATCTAG)” the figure was 0; with “CGGACATCATGGACCGGTTTTCCCGGTAATCCGTATTTGCA (site CGGACATCTCG)”, 0.
In the case of “CGGACATCATGGACCGGTTTTCCCGGTAATCCGTATTTGCA (site CGGACATCTGG)”, the “recombinant UMI read abundance (log10)” value is 0.
With “CGGACATCATGGACCGGTTTTCCCGGTAATCCGTATTTGCA (site CGGACATCTTG)” the figure was 2.76; with “CGGACATCATGGACCGGTTTTCCCGGTAATCCGTATTTGGT (site CGGACATCTAA)”, 0.416.
With “CGGACATCATGGACCGGTTTTCCCGGTAATCCGTATTTGGT (site CGGACATCTAC)” the figure was 2.13.
With “CGGACATCATGGACCGGTTTTCCCGGTAATCCGTATTTGGT (site CGGACATCTAG)”, the “recombinant UMI read abundance (log10)” value amounted to 0.
Consider “CGGACATCATGGACCGGTTTTCCCGGTAATCCGTATTTGGT (site CGGACATCTAT)”, for which the “recombinant UMI read abundance (log10)” value was 1.15.
With “CGGACCTCATGGACCGGTTTTCCCGGTAATCCGTATTTGCT (site CGGACATCTAG)” the figure was 0.00704; with “CGGACCTCATGGACCGGTTTTCCCGGTAATCCGTATTTGCT (site CGGACCTCTAG)”, 3.12.
The result for “CGGACCTCATGGACCGGTTTTCCCGGTAATCCGTATTTGCT (site CGGACGTCTAG)” reads 0.00745; that for “CGGACCTCATGGACCGGTTTTCCCGGTAATCCGTATTTGCT (site CGGACTTCTAG)”, 0; that for “CGGACGTCATGGACCGGTTTTCCCGGTAATCCGTATTTGCT (site CGGACATCTAG)”, 2.54.
With “CGGACGTCATGGACCGGTTTTCCCGGTAATCCGTATTTGCT (site CGGACCTCTAG)” the figure was 0.
“CGGACGTCATGGACCGGTTTTCCCGGTAATCCGTATTTGCT (site CGGACGTCTAG)”: the “recombinant UMI read abundance (log10)” value was found to be 3.06.
With “CGGACGTCATGGACCGGTTTTCCCGGTAATCCGTATTTGCT (site CGGACTTCTAG)” the figure was 0.597; with “CGGACTACATGGACCGGTTTTCCCGGTAATCCGTATTTGAC (site AGGACTACTGT)”, 0; with “CGGACTACATGGACCGGTTTTCCCGGTAATCCGTATTTGAC (site CGGACTACTGT)”, 2.98.
Regarding “CGGACTACATGGACCGGTTTTCCCGGTAATCCGTATTTGAC (site GGGACTACTGT)”, the “recombinant UMI read abundance (log10)” value turned out to be 0.
For “CGGACTACATGGACCGGTTTTCCCGGTAATCCGTATTTGAC (site TGGACTACTGT)”, the “recombinant UMI read abundance (log10)” value worked out at 1.51.
In the case of “CGGACTCCATGGACCGGTTTTCCCGGTAATCCGTATTTGGT (site CGGAATCCTAA)”, the “recombinant UMI read abundance (log10)” value is 0.00968.
Regarding “CGGACTCCATGGACCGGTTTTCCCGGTAATCCGTATTTGGT (site CGGACTCCTAC)”, the “recombinant UMI read abundance (log10)” value was 0.215.
With “CGGAGAGCATGGACCGGTTTTCCCGGTAATCCGTATTTGAA (site CGGAGAGCTTT)” the figure was 2.27.
The result for “CGGAGCACATGGACCGGTTTTCCCGGTAATCCGTATTTGCA (site CGGAGCACTTG)” reads 2.66; that for “CGGAGGACATGGACCGGTTTTCCCGGTAATCCGTATTTGCA (site AGGAAGACTTG)”, 0; that for “CGGAGGACATGGACCGGTTTTCCCGGTAATCCGTATTTGCA (site CGGAGGACTTG)”, 2.78.
As to “CGGAGGCCATGGACCGGTTTTCCCGGTAATCCGTATTTGTT (site CGGAATCCTAA)”, the “recombinant UMI read abundance (log10)” value was determined as 0.00304.
In the case of “CGGAGGCCATGGACCGGTTTTCCCGGTAATCCGTATTTGTT (site CGGAGGCCTAA)”, the “recombinant UMI read abundance (log10)” value is 0.
With “CGGATAGCATGGACCGGTTTTCCCGGTAATCCGTATTTGTT (site CGGATAGCTAA)” the figure was 2; with “CGGCATCCATGGACCGGTTTTCCCGGTAATCCGTATTTGTG (site CGGAATCCTAA)”, 0; with “CGGCATCCATGGACCGGTTTTCCCGGTAATCCGTATTTGTG (site CGGCATCCTCA)”, 0.644.
With “CGGCCGGCATGGACCGGTTTTCCCGGTAATCCGTATTTGGC (site AGGCCGGCTGC)”, the “recombinant UMI read abundance (log10)” value came out at 0.
As to “CGGCCGGCATGGACCGGTTTTCCCGGTAATCCGTATTTGGC (site CGGCCGGCTGC)”, the “recombinant UMI read abundance (log10)” value came to 1.21.
With “CGGCCGGCATGGACCGGTTTTCCCGGTAATCCGTATTTGGC (site GGGCCGGCTGC)”, the “recombinant UMI read abundance (log10)” value was 0.
The result for “CGGCCGGCATGGACCGGTTTTCCCGGTAATCCGTATTTGGC (site TGGCCGGCTGC)” reads 0; that for “CGGCGCACATGGACCGGTTTTCCCGGTAATCCGTATTTGTA (site CGGCGCACTTA)”, 1.57; that for “CGGCTACCATGGACCGGTTTTCCCGGTAATCCGTATTTGCT (site CAGCTACCTAG)”, 0.
With “CGGCTACCATGGACCGGTTTTCCCGGTAATCCGTATTTGCT (site CCGCTACCTAG)” the figure was 0; with “CGGCTACCATGGACCGGTTTTCCCGGTAATCCGTATTTGCT (site CGGCTACCTAG)”, 0.
With “CGGCTACCATGGACCGGTTTTCCCGGTAATCCGTATTTGCT (site CTGCTACCTAG)” the figure was 0; with “CGGCTGACATGGACCGGTTTTCCCGGTAATCCGTATTTGCC (site CGGCTGACTGG)”, 1.22.
In the case of “CGGCTGACATGGACCGGTTTTCCCGGTAATCCGTATTTGTT (site CGGCTGACTAA)”, the “recombinant UMI read abundance (log10)” value was 0.0767.
The result for “CGGGAACCATGGACCGGTTTTCCCGGTAATCCGTATTTGAG (site CGGGAACCTAT)” reads 0; that for “CGGGAACCATGGACCGGTTTTCCCGGTAATCCGTATTTGAG (site CGGGAACCTCT)”, 0.013.
The result for “CGGGAACCATGGACCGGTTTTCCCGGTAATCCGTATTTGAG (site CGGGAACCTGT)” reads 0; that for “CGGGAACCATGGACCGGTTTTCCCGGTAATCCGTATTTGAG (site CGGGAACCTTT)”, 0.

The record behind these values is the supplement of paper PMC11208160.
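Further: IS621 bridge recombinase in Escherichia coli cells against a fixed T5 target plasmid.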
